According to patent US12122973B2, “Guanidinium-based ionic liquid and its use as a lubricant additive” (TOTALENERGIES ONETECH, priority 2020, dated 2024):

Columns and labels:
[1] = Base number (BN/TBN) according to ASTM D2896; assay type: physicochemical; details: neat ionic liquid
Method: An oil's neutralization capacity is measured by its BN or Base Number, characterized by its basicity. It is measured according to standard ASTM D-2896 and is expressed as an equivalent in milligrams of potash per gram of oil (also called “mg of KOH/g” or “BN point”). The BN is a standard criterion making it possible to adjust the basicity of the cylinder oils to the sulphur content of the fuel oil used, in order to be able to neutralize all of the sulphur contained in the fuel, and capable of being converted to sulphuric acid by combustion and hydrolysis.
The base number of IL1 is 61 mg KOH/g according to ASTM D2896.

[2] = Solubility test of the ionic liquid in base oil; assay type: physicochemical; details: lubricant composition of IL1 and base oil; room temperature (15-25° C.) and 60° C.; limpid after three months
Description: In order to be used in a lubricant composition, the guanidinium-based ionic liquid must preferably be soluble in the base oil which represents the major part of the lubricant composition. A compound is oil-soluble when it can be solubilized at a concentration of at least 0.01% by weight with regards to the weight of a base oil, at room temperature. In order to check that the guanidinium-based ionic liquid is oil-soluble, a test is disclosed in the experimental part.
In order to check that the guanidinium-based ionic liquid is oil-soluble, the following test has been achieved:
100 mL of the lubricant composition comprising IL1 and the base oil is introduced into two reaction tubes. One of the tubes is maintained at room temperature (between 15 and 25° C.) and the other reaction tube is placed in an oven at 60° C.
After three months, the lubricant composition of both reaction tubes was limpid.

Q: What does the source list for “1,1,3,3-tetramethylguanidinium tert-Octylphenylpolyethoxyethanolate [IL1]”?
A: base number [1]: 61 mg KOH/g; solubility in the oil [2]: soluble in the oil
